Test results: PMC12431657, “Discovery and mechanistic insights of dibenzoylmethane as a broad spectrum inhibitor of coronavirus” (PLOS Pathogens, 2025)
Where “and” joins values, the source holds several entries; their conditions need not be identical. Equal entries are not always repeated. Where two headings read alike, the source gives them in different places. Peptide text beside a SMILES is read from it. * marks the point of attachment. Cbz = O=C(OCc1ccccc1)*; CH2F = FC*

Key:
HCoV-OC43 [1] = experiment: Time-of-addition assay; assay type: cell-based; conditions: replicates
Protocol: To obtain further insight into the stage at which DBM inhibits the replication of HCoV-OC43 and other HCoVs, RD cells were incubated with compounds, including DBM, remdesivir (RDV), and chloroquine (CQ), at different stages of viral infection. Viral RNA from the supernatant was extracted and quantitatively analysed via qRT-PCR. […] For the viral binding assay, cells were cultured in the presence or absence of DBM at different concentrations for 1 hour before being infected with HCoV-OC43 at an MOI of 50, and then were placed on ice for 2 hours for the viral particles to bind to the membrane of the host cells, followed by washing with PBS. […] In addition to binding to receptors from host cells, the spike proteins of HCoV-OC43 could also trigger membrane fusion when HCoV-OC43 spike plasmid-transfected 293T cells were seeded together with RD cells as target cells, and the addition of DBM had no effect on this process (S5C Fig). To examine whether DBM inhibits viral internalisation, cells were inoculated with HCoV-OC43 for 1 hour on ice before being treated with either DBM or DMSO, and CQ was included to prevent endosomal acidification. Subsequently, HCoV-OC43 nucleocapsid proteins were immunostained with CoraLite Plus 488 to assess viral internalisation via confocal microscopy. […] To determine whether DBM influences viral release, we quantified viral RNA both intracellularly and in the supernatant.
To evaluate the effects of DBM on the life cycle of HCoV-229E and HCoV-OC43, fresh culture medium containing 0.6 μM DBM, 0.1 μM remdesivir (RDV), or 10 μM chloroquine (CQ) was supplemented with preseeded cells at different time points relative to infection (entry group: 0 to –2 hours; postinfection group: 2–12 hours; and full-time group: 0 to –12 hours). DMSO served as the control. At 24 hours postinfection, the number of intracellular virus RNA copies was quantified by qRT-PCR as previously described.

HCoV-OC43 [2] = assay type: cell-based; conditions: transient expression or RDV control, replicates
HCoV-229E [3] = experiment: Antiviral activity in vitro, viral RNA copies by qRT-PCR, HCoV-229E in Huh-7 cells; assay type: cell-based; conditions: for EC50: Human coronavirus 229E, Huh-7, 24 h, read-out: EC50 HCoV-229E (Huh-7)
HCoV-229E [4] = experiment: Antiviral activity in vitro, qRT-PCR, HCoV-229E in MRC-5 cells; assay type: cell-based; conditions: for EC50: Human coronavirus 229E, MRC5, 24 h, read-out: EC50 HCoV-229E (MRC-5); for HCoV-229E, MRC-5: inhibition at the concentration (Fig2B): replicates
HCoV-OC43 [5] = experiment: Antiviral activity in vitro, qRT-PCR, HCoV-OC43 in RD cells; assay type: cell-based; conditions: for EC50: Betacoronavirus 1, OC43, RD, 24 h, read-out: EC50 HCoV-OC43 (RD)
HCoV-OC43 [6] = experiment: Antiviral activity in vitro, qRT-PCR, HCoV-OC43 in Huh-7 cells; assay type: cell-based; conditions: for EC50: Betacoronavirus 1, OC43, Huh-7, 24 h, read-out: EC50 HCoV-OC43 (Huh-7); for HCoV-OC43, Huh-7: inhibition at the concentration (Fig2B): replicates
HCoV-OC43 [7] = test system: HCoV-OC43
airway inflammation = conditions: 50 mpk; cited from earlier work
[8] = erythromycin estolate exceeding 300 mpk, veratramine exceeding 10 mpk; cited from earlier work
caspase-6 = target: T1, caspase-6 (Homo sapiens, UniProt P55212); assay type: cell-based
T1 construct: endogenous in cells
T1 sequence (P55212 24-293): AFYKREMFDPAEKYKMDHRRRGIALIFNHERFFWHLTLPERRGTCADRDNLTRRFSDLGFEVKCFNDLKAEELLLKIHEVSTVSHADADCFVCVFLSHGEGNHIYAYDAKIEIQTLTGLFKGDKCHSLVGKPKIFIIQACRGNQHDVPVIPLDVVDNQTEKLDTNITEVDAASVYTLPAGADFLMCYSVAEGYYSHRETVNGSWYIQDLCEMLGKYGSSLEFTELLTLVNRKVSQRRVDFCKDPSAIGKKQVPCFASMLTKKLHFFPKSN

HCoV-OC43 [9] = assay type: cell-based
HCoV-OC43 [10] = experiment: HCoV-OC43 nucleocapsid protein and caspase-6 in infected cells (Western blot); assay type: cell-based; conditions: cells pretreated with serially diluted compound
[11] = conc. 0.1 (unit not given), replicates
[12] = conc. 0.7 (unit not given), replicates
[13] = conc. 2.2 (unit not given), replicates
[14] = conc. 6.7 (unit not given), replicates
[15] = conc. 20 (unit not given), replicates

CCC(CC)COC(=O)[C@H](C)N[P@](=O)(OC[C@H]1O[C@@](C#N)(c2ccc3c(N)ncnn23)[C@H](O)[C@@H]1O)Oc1ccccc1 [RDV]
time-of-addition, viral inhibition (HCoV-OC43 [1]; Entry): 67.6 and 36.5 and 35.3 | time-of-addition, viral inhibition (HCoV-OC43 [1]; Full-Time): 99.4 and 98.9 and 99.6 | time-of-addition, viral inhibition (HCoV-OC43 [1]; Post-Entry): 98.3 and 99.4 and 98.6 | HCoV-OC43 inhibition (Fig5C) (HCoV-OC43 [2]): 97.17 and 71.11 and 82.55

C/C=C(/C)C(=O)OC(C)(C)[C@@H]1Cc2c(ccc3ccc(=O)oc23)O1 [Columbianadin, columbianadin]
EC50 (HCoV-229E [3]): < 80 nM | EC50 (229E, Huh-7): inhibition at the concentration (HCoV-229E [3]; [11]): 58.8 and 59.6 and 58 | EC50 (229E, Huh-7): inhibition at the concentration (HCoV-229E [3]; conc. 0.2 (unit not given), replicates): 70.5 and 77.4 and 76.1 | EC50 (229E, Huh-7): inhibition at the concentration (HCoV-229E [3]; [12]): 68 and 72.5 and 61.2 | EC50 (229E, Huh-7): inhibition at the concentration (HCoV-229E [3]; [13]): 74.2 and 70.6 and 86.9 | EC50 (229E, Huh-7): inhibition at the concentration (HCoV-229E [3]; [14]): 89.7 and 91.5 and 80.4 | EC50 (229E, Huh-7): inhibition at the concentration (HCoV-229E [3]; [15]): 92.4 and 94.9 and 95 | EC50 (HCoV-229E [4]): 1550 nM | HCoV-229E, MRC-5: inhibition at the concentration (Fig2B) (HCoV-229E [4]; conc. 0.1 (unit not given)): 35.3 and 18.1 and 41.4 | HCoV-229E, MRC-5: inhibition at the concentration (Fig2B) (HCoV-229E [4]; conc. 0.2 (unit not given)): 32.0 and 58.2 | HCoV-229E, MRC-5: inhibition at the concentration (Fig2B) (HCoV-229E [4]; conc. 0.7 (unit not given)): 17.5 and 18.6 and 52.2 | HCoV-229E, MRC-5: inhibition at the concentration (Fig2B) (HCoV-229E [4]; conc. 2.2 (unit not given)): 63.2 and 52.3 and 54.8 | HCoV-229E, MRC-5: inhibition at the concentration (Fig2B) (HCoV-229E [4]; conc. 6.7 (unit not given)): 83.3 and 82.1 and 80.5 | HCoV-229E, MRC-5: inhibition at the concentration (Fig2B) (HCoV-229E [4]; conc. 20.0 (unit not given)): 94.9 and 92.9 and 95.1 | EC50 (HCoV-OC43 [5]): 2220 nM | EC50 (OC43, RD): inhibition at the concentration (HCoV-OC43 [5]; [11]): -25.3 and -42.7 and -34.3 | EC50 (OC43, RD): inhibition at the concentration (HCoV-OC43 [5]; [12]): -23.9 and 2.7 and -3.5 | EC50 (OC43, RD): inhibition at the concentration (HCoV-OC43 [5]; [13]): 49.6 and 48.7 and 52.3 | EC50 (OC43, RD): inhibition at the concentration (HCoV-OC43 [5]; [14]): 93.7 and 94.2 and 94.0 | EC50 (OC43, RD): inhibition at the concentration (HCoV-OC43 [5]; [15]): 99.8 | EC50 (HCoV-OC43 [6]): 190 nM | HCoV-OC43, Huh-7: inhibition at the concentration (Fig2B) (HCoV-OC43 [6]; conc. 0.1 (unit not given)): 48.4 and 50.8 (2×) | HCoV-OC43, Huh-7: inhibition at the concentration (Fig2B) (HCoV-OC43 [6]; conc. 0.2 (unit not given)): 30.0 and 36.0 and 38.1 | HCoV-OC43, Huh-7: inhibition at the concentration (Fig2B) (HCoV-OC43 [6]; conc. 0.7 (unit not given)): 73.5 and 75.0 and 75.6 | HCoV-OC43, Huh-7: inhibition at the concentration (Fig2B) (HCoV-OC43 [6]; conc. 2.2 (unit not given)): 94.2 and 94.1 and 94.4 | HCoV-OC43, Huh-7: inhibition at the concentration (Fig2B) (HCoV-OC43 [6]; conc. 6.7 (unit not given)): 98.5 (2×) and 98.6 | HCoV-OC43, Huh-7: inhibition at the concentration (Fig2B) (HCoV-OC43 [6]; conc. 20.0 (unit not given)): 98.4 and 98.3 (2×) | Body weight changes (HCoV-OC43 [7]; Columbianadin 50 mpk oral QD, day 0, one value per mouse): 99.0 (4×) and 102.0 (2×) | number of viral RNA copies in HCoV-OC43-infected mice (HCoV-OC43 [7]; columbianadin 50 mpk QD, erythromycin estolate 300 mpk QD): did not significantly reduce | airway inflammation in mice (airway inflammation): suppress airway inflammation

Cc1c([C@H](C)[C@@H]2NC[C@@H](C)C[C@H]2O)ccc2c1C[C@H]1[C@H]2CC=C2C[C@@H](O)CC[C@@]21C [Veratramine, veratramine]
EC50 (229E, Huh-7): inhibition at the concentration (HCoV-229E [3]): 93.4 | EC50 (HCoV-229E [3]): < 80 nM | EC50 (HCoV-229E [4]): 600 nM | EC50 (OC43, RD): inhibition at the concentration (HCoV-OC43 [5]): 99.8 and 99.2 | EC50 (HCoV-OC43 [5]): 250 nM | EC50 (HCoV-OC43 [6]): < 80 nM | Body weight changes (HCoV-OC43 [7]; mouse, in vivo): 98.5 | safe use in antitumour mouse models [8]: safely used

CC[C@H](C)[C@H](NC(=O)[C@H](CCC(=O)OC)NC(=O)[C@@H](NC(=O)OCc1ccccc1)C(C)C)C(=O)N[C@@H](CC(=O)OC)C(=O)CF [Z-VEID-FMK, reference compound] (Cbz-VE(OMe)ID(OMe)-CH2F)
Caspase-6 activity (Fig5J) (caspase-6; time point 0, replicates): 8.3 and 9.2 and 8.8 | Caspase-6 activity (Fig5J) (caspase-6; time point 2, replicates): 12.5 and 11.5 and 12.1 | Caspase-6 activity (Fig5J) (caspase-6; time point 4, replicates): 11.7 and 13.0 (2×) | Caspase-6 activity (Fig5J) (caspase-6; time point 6, replicates): 9.9 and 10.2 and 9.5 | Caspase-6 activity (Fig5J) (caspase-6; time point 8, replicates): 9.8 and 9.0 and 8.1 | antiviral activity in CASP6 knockout cell pools (HCoV-OC43 [9]; RD cells): decreased | Viral inhibition (Fig5K) (HCoV-OC43 [9]; concentration 2, RD-Scramble cells): 58.3 and 64.9 and 64.7 | Viral inhibition (Fig5K) (HCoV-OC43 [9]; concentration 20, RD-Scramble cells): 67.9 and 79.5 and 81.6 | virus replication (nucleocapsid protein, Western blot) (HCoV-OC43 [10]): inhibited virus replication
